# In PubChem BioAssay AID449762 (Southern Research Specialized Biocontainment Screening …, 2010):
# Results filed as inconclusive are left out.
# Tested on: M. tuberculosis H37Rv growth inhibition, 7H9 media
# Assay: M. tuberculosis growth inhibition, HTS (AID 449762);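 also: bacterial growth assessed after seven days of incubation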
# Conditions: for IC90: measured here: IC90 growth inhibition
SMILES,IC50,IC90
COc1ccc(-c2nnc(NC(=O)c3ccc([N+](=O)[O-])o3)o2)c(OC)c1,1.05 µM,3.04 µM
Oc1ccccc1-c1nnc(COc2ccccc2)o1,7.64 µM,34.7 µM
COC(=O)c1ccc(CSc2nc(C(F)(F)F)c3c(c2C#N)CCC3)o1,47.1 µM,> 100 µM
Cc1cccc(N2CCN(CCCNC(=O)c3ccc(NC(=O)C4=CSCCO4)cc3)CC2C)c1 (stereo unspecified),19.7 µM,29.2 µM
COC(=O)CSc1ncnc2c1sc1nc3c(cc12)COC(C)(C)C3,3.68 µM,17.3 µM
c1ccc(-c2n[nH]c(-c3ccccn3)n2)cc1,12.6 µM,19.3 µM
Cc1ncc(C23CC4CC(CC(C4)C2)C3)[nH]1,49.9 µM,51.5 µM
Fc1nc(F)c(F)c(NCCCNc2c(F)c(F)nc(F)c2F)c1F,37.7 µM,> 100 µM
Cc1cccc(C)c1OCCCCc1c(C)n[nH]c1C,10.9 µM,26.4 µM
C=CCOc1ccc(/C=C/C(=O)OCC(=O)NCC2CCCO2)cc1 (stereo unspecified),98.7 µM,> 100 µM
COc1ccc(-c2csc(NC(C)c3nc4cc(Cl)c(N5CCCCC5)cc4n3CCCO)n2)cc1 (stereo unspecified),11.2 µM,12.7 µM
O=C(CSCc1ccc([N+](=O)[O-])cc1)N/N=C/c1ccncc1,3.47 µM,10.3 µM
COC(=O)c1cc(-c2cccc(OC)c2)on1,0.37 µM,> 100 µM
Cc1nc2scc(-c3cccs3)c2c(=O)n1-n1cccc1,56.1 µM,> 100 µM
O=[N+]([O-])c1ccc(N2CCCCC2)s1,7.61 µM,17.9 µM
CCOC(=O)CSc1nnc(-c2c[nH]c3ccccc23)o1,0.59 µM,> 100 µM
CNC[C@H](Cc1cccc2ccccc12)NC[C@H](CCSC)NCC1CCC(C(C)(C)C)CC1 (stereo partly specified),22.4 µM,24.2 µM
Nc1nnnn1/N=C/C(Br)=C/c1ccccc1,1.08 µM,8.66 µM
O=C(CCl)Nc1cccn2ncnc12,1.38 µM,2.89 µM
CC(C)NC(=S)N/N=C/c1cc(Br)ccc1O,6.79 µM,18.3 µM
CC1=CC(=O)C(C(C)C)=C/C1=N/OS(=O)(=O)c1ccccc1,1.44 µM,4.12 µM
N#Cc1nccnc1S(=O)(=O)c1cccs1,40.6 µM,61.1 µM

SMILES,IC50,IC90
COc1ccccc1/C=N/NC(=O)NC12CC3CC(CC(C3)C1)C2,–,> 100 µM
Cc1ccc(NC(=O)COC(=O)C(NS(=O)(=O)c2ccc(Cl)cc2)C(C)O)cc1C (stereo unspecified),2.17 µM,8.97 µM
Cc1cccc(OCC(=O)NNC(=O)c2cc3ccccc3oc2=O)c1,25.4 µM,> 100 µM
O=C(CCN1C(=O)/C(=C/c2ccccc2Cl)SC1=S)N1CCCC1,9.76 µM,> 25 µM
CCCc1cc(-c2nc(-c3ccc(Br)cc3)cs2)ccn1,10.3 µM,20.6 µM
CSc1ncc(C(=O)Nc2ccc(Br)cn2)c(C)n1,0.93 µM,3.9 µM
On1onc2c3cc(-c4ccccc4)nc3ccc21,< 0.2 µM,< 0.2 µM
Cc1ccc(OCCN2CCN(c3ncnc4sc(C)c(C)c34)CC2)cc1,93.7 µM,> 100 µM
COc1ccc(C(C(O)C(=O)c2c[nH]c3ccccc23)N2CCN(c3ccc(OC)cc3)CC2)cc1 (stereo unspecified),100 µM,> 100 µM
COC(=O)c1cc(Sc2cccc(Cl)c2Cl)ccn1,20.6 µM,30.7 µM
COc1ccc(-c2cc(-c3ccccc3)c(C#N)c(S(C)=O)n2)cc1 (stereo unspecified),15.1 µM,29 µM
Cc1ccc(C)c(N/C(N)=N/c2nc(C)cc(C)n2)c1,5.87 µM,6.72 µM
O=C(N[C@H]1CCC(=O)N(CCSc2ccc(Br)cc2)CC1)OCc1ccccc1,23.3 µM,28.6 µM
CCCCn1nc(C(=O)N[C@@H](CCSC)c2nc3ccccc3[nH]2)c2ccccc2c1=O,53 µM,78.5 µM
CCc1ccc(NC(=O)c2ccc(C3SCC(=O)N3CCc3ccccc3)cc2)cc1 (stereo unspecified),97.5 µM,> 100 µM
CCCn1c(N2CCN(Cc3ccc(Cl)cc3)CC2)nc2ccccc21,11.3 µM,23.5 µM
Cc1ccccc1N/N=C/c1c(C)nc2ccccn12,47.1 µM,53.7 µM
Cc1ccc(CNc2ccc3c(c2)ncn3C(C)(C)C)cc1,7.41 µM,14.8 µM
O=C(COc1cc(O)c2c(=O)c3ccccc3oc2c1)OCc1ccccc1,–,> 100 µM
C#CCOc1ccc2c(c1)c(C(C)=O)c(C)n2Cc1ccccc1,68.4 µM,> 100 µM
CC(C)(C)c1ccc(Cn2nnc3c(=O)[nH]c(C4CCCN(C(=O)Cc5cccs5)C4)nc32)cc1 (stereo unspecified),35.2 µM,47.8 µM
CC1CCN(C(=O)C2CCN(c3nnc(-n4cccc4)s3)CC2)CC1,2.96 µM,3.37 µM
